Experimental data published in the NIST ThermoML archive (doi:10.1016/j.fluid.2008.04.014).
± gives the expanded uncertainty stated by the source.

Experiments:
[1] = Liquid; for mass density: 293.15 K, 101.33 kPa, Vibrating tube method; for Normal boiling temperature: Manometric method
[2] = refractive index (Na D-line) (dimensionless); conditions: 293.15 K; 101.33 kPa; Liquid; Standard Abbe refractometry

Compound | mass density [1] [kg/m3] | Normal boiling temperature [1] [°C] | refractive index [2]
CC(=O)O [acetic acid] | 1044.7 ± 0.3 | 117.90 ± 0.4 | 1.3719 ± 0.0011
COC(=O)/C=C\C(=O)OC [dimethyl cis-butenedioate] | 1160.8 ± 0.4 | 202.00 ± 1 | 1.4415 ± 0.0011

Now from value to compound:

mass density [1] [kg/m3] | Normal boiling temperature [1] [°C] | refractive index [2] | Compound
1221.1 ± 0.4 | 101.00 ± 1 | 1.3709 ± 0.0011 | O=CO [formic acid]
988.3 ± 0.3 | 141.20 ± 0.4 | 1.391 ± 0.0011 | CCC(=O)O [propanoic acid]
– | – | 1.3334 ± 0.001 | O [water]
